Measurements as given in PubChem BioAssay (NCI).
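Exposure lasted 48 hours, with cells grown in 96-well plates and compounds tested at five concentrations. TGI denotes the concentration required for complete inhibition of growth.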

Experiments:
Experiment in all cases: growth of human tumour cells (NCI), 48 h
T-47D breast = tested on: T-47D breast
IGROV1 ovarian = tested on: IGROV1 ovarian
SF-539 CNS = tested on: SF-539 CNS
PC-3 prostate = tested on: PC-3 prostate
MOLT-4 leukemia = tested on: MOLT-4 leukemia
K-562 leukemia = tested on: K-562 leukemia
SNB-19 CNS = tested on: SNB-19 CNS
SR leukemia = tested on: SR leukemia
EKVX NSCLC = tested on: EKVX NSCLC
ACHN renal = tested on: ACHN renal
OVCAR-4 ovarian = tested on: OVCAR-4 ovarian
NCI-H23 lung = tested on: NCI-H23 lung
SK-OV-3 ovarian = tested on: SK-OV-3 ovarian
UACC-257 melanoma = tested on: UACC-257 melanoma
TK-10 renal = tested on: TK-10 renal
CCRF-CEM leukemia = tested on: CCRF-CEM leukemia
M14 melanoma = tested on: M14 melanoma
HS 578T breast = tested on: HS 578T breast

Row | Structure (SMILES) | TGI (T-47D breast) [µM] | TGI (IGROV1 ovarian) [µM] | TGI (SF-539 CNS) [µM] | TGI (PC-3 prostate) [µM] | TGI (MOLT-4 leukemia) [µM] | TGI (K-562 leukemia) [µM] | TGI (SNB-19 CNS) [µM] | TGI (SR leukemia) [µM] | TGI (EKVX NSCLC) [µM] | TGI (ACHN renal) [µM] | TGI (OVCAR-4 ovarian) [µM] | TGI (NCI-H23 lung) [µM] | TGI (SK-OV-3 ovarian) [µM] | TGI (UACC-257 melanoma) [µM] | TGI (TK-10 renal) [µM] | TGI (CCRF-CEM leukemia) [µM] | TGI (M14 melanoma) [µM] | TGI (HS 578T breast) [µM]
1 | COc1ccc(OC)c(NS(=O)(=O)c2ccc3nc(C)n(NS(=O)(=O)c4cc(OC)ccc4OC)c(=O)c3c2)c1 | > 100 | > 100 | > 100 | > 100 | 62.7 | > 100 | > 100 | > 100 | > 100 | > 100 | > 100 | > 100 | > 100 | > 100 | > 100 | > 100 | > 100 | > 100
2 | CC(=O)N=C1N(/C=C2\C(=O)Oc3ccccc3C2=O)C(=O)/C(=C/c2ccc(NC(C)=O)cc2)N1C | > 100 | > 100 | > 100 | > 100 | > 100 | > 100 |  | > 100 | > 100 | > 100 | > 100 | > 100 | > 100 | > 100 |  | > 100 | > 100 | > 100
3 | CCCCCCCCCCCCCCCC(=O)N(CCCCCCCCCCC(=O)O)CC(O)C(O)C(OC1OC(CO)C(O)C(O)C1O)C(O)CO (stereo not given) | > 100 | > 100 | 54.9 | > 100 | 46.4 | 41.4 | 52.9 | 49.9 | > 100 | > 100 | > 100 | > 100 | > 100 | 55.7 | > 100 | 45.7 | 50.2 | > 100
4 | COc1ccc(C2C3COc4ccccc4C3=NN2c2ccccc2)cc1 (stereo not given) | > 100 | > 100 | > 100 | > 100 | > 100 | > 100 | > 100 | > 100 | > 100 | > 100 | > 100 | > 100 | > 100 | > 100 | > 100 | > 100 | > 100 | > 100
5 | C=C1C(=O)O[C@H]2[C@@H](O)[C@H](C)CCC[C@]3(C)O[C@H]3CC[C@@]3(C)O[C@@H]3C[C@@H]12 | 19.9 | 12.1 | 13.3 | 14.5 | 7.15 | 3.25 | 27.7 | 5.99 | 11.3 |  | 9.85 | 13 | 25 |  |  | 5.22 | 12.4 | 42
6 | CCOC(=O)/C(C#N)=C/c1ccnc2ccccc12 | > 100 | > 100 | 50 | > 100 | > 100 |  | > 100 | 64.9 | > 100 | > 100 | > 100 | > 100 | > 100 | > 100 | > 100 |  | > 100 | > 100
7 | O=C(Cc1ccccc1)Nn1c(-c2ccccc2)nc2ccccc2c1=O | > 100 | > 100 | > 100 | > 100 | > 100 | > 100 | > 100 | > 100 | > 100 | > 100 | > 100 | > 100 | > 100 | > 100 | > 100 | > 100 | > 100 | > 100
8 | C=C1C(=O)O[C@@H]2C[C@]3(C)CC[C@]4(C)[C@H](CC[C@@H]5[C@@]6(C)CCC(=O)C(C)(C)[C@@H]6CC[C@]54C)[C@H]3[C@H]12 | 34 | 39.2 | 38.2 | 35.4 | 5.76 | 16.7 | > 60.6 | 36.5 | 38 | 24.2 | 40.1 | 57.3 | 44.1 | 32.8 | 30.3 | 6.14 | 31.3 | > 78
9 | CCCCCCCCCCCCOCCCOP(=O)([O-])OCC[N+](C)(C)C | 38 | 25.6 | 54.9 | 9.73 | 65.1 | > 76.5 | 46.9 | > 73.5 | > 100 | > 80.2 | > 100 | 99.2 | > 100 | 98.9 | 14.9 | 70.2 | 98.2 | 57.7
10 | FC1C2=C(SC1(F)F)C1CCC2C1 (stereo not given) | > 100 | > 100 |  | > 100 | > 100 | > 100 | > 100 | > 100 | > 100 | > 100 | > 100 | > 100 | > 100 | > 100 | > 100 |  | > 100 | > 100
11 | CN(C)CCCn1nc(N)c2nc3cc(Cl)ccc3nc21 | > 100 | 94.8 | > 100 | > 100 | > 100 | > 100 | > 100 | > 100 | > 100 | > 100 | > 100 | > 100 | > 100 | 59.3 | > 100 | 96.5 | 47.4 | > 100
12 | CCOC(=O)C(Cc1cccn1C(=O)OC(C)(C)C)[N+](=O)[O-] (stereo not given) | > 100 | 43.3 | 58.7 | 45.3 | 50.4 | 79.6 | 75.5 | 45 | > 100 | 47.5 | 89 | > 100 | > 100 | 59.3 | 50.3 | 35.4 | 40.9 | 75.9
13 | Cc1ccc(NC(=O)CSc2nc(=O)[nH]c3nc[nH]c23)cc1 | > 100 | > 100 | 52.8 | > 100 | > 100 | > 100 | > 100 | > 100 | > 100 | > 100 | > 100 | > 100 | > 100 | > 100 | > 100 | > 100 | > 100 | > 100
14 | c1c[nH]c(C23C4C5C6C4C2C6C53)n1 (stereo not given) | > 100 | > 100 | > 100 | > 100 | > 100 | > 100 | > 100 | > 100 | > 100 | > 100 | > 100 | > 100 | > 100 | > 100 | > 100 | > 100 | > 100 | > 100
15 | CCOP(=O)(OCC)C(C#N)Cc1ccco1 (stereo not given) | > 10 | > 10 | > 10 | > 10 | > 10 | > 10 | > 10 | > 10 | > 10 | > 10 | > 10 | > 10 | > 10 | > 10 | > 10 | > 10 | > 10 | > 10
16 | CC1=Nc2sc3c(c2C2=NCCN12)CCCC3 | 88 | 60.7 |  | 65.9 | 60.5 | > 100 | > 100 | 65.2 | 94.1 | 69.9 | > 100 | 46.3 |  | 48.5 | > 100 |  |  | 91.1
17 | Nc1ccc(C(=O)c2cn(CCN3CCOCC3)c3ccccc23)c2ccccc12 | 72.8 | 52.3 | > 100 | > 100 | 52.5 | 56.7 | > 100 | 65.6 | 90.8 | > 100 | > 100 | 68 | > 100 | > 100 |  | 45.3 | > 100 | > 100
18 | Clc1ccc(C(SCc2ccccc2)SCc2ccccc2)cc1 | > 10 | > 10 | > 10 | > 10 | > 10 | > 10 | > 10 | > 10 | > 10 | > 10 | > 10 | > 10 | > 10 | > 10 | > 10 | > 10 | > 10 | > 10
19 | CCOC(=O)CC(=O)Nc1cccc2[nH]cnc12 | > 100 | > 100 | > 100 | > 100 | > 100 | > 100 | > 100 | > 100 | > 100 | > 100 | > 100 | > 100 | > 100 | > 100 |  | > 100 | > 100 | > 100
20 | Cc1ccc(/C(O)=C/c2nc3ccccc3s/c2=N/CS(=O)(=O)c2ccc(C)cc2)cc1 | > 10 | > 10 | > 10 | > 10 | > 10 | > 10 | > 10 | > 10 |  | > 10 | > 10 | > 10 | > 10 | > 10 | > 10 | > 10 | > 10 | > 10
21 | O=c1c(=O)c2c(Br)sc(Br)c2c1=O | 47.8 | 34.7 | 35.3 | 36.5 | 48.3 | 51 | > 100 | 44.2 | 42.8 | 44.7 | 31.2 | 40.6 | > 100 | 36.5 | 47.7 |  | 34.3 | > 100
22 | CC(=O)OC[C@@H](OC(C)=O)[C@H](OC(C)=O)[C@@H]1OC(C)(C)O[C@@H]1C1SCCCS1 | > 100 |  | > 100 | > 100 | > 100 | > 100 | > 100 | > 100 | > 100 | > 100 | > 100 | > 100 | > 100 | > 100 | > 100 | > 100 | > 100 | > 100
23 | COc1ccc(N2C=Nn3c(nc4sc5c(c4c3=O)CCCC5)C2)cc1 | > 100 | > 100 |  | > 100 | > 100 | > 100 | > 100 | > 100 | > 100 | 53.2 | > 100 | > 100 | > 100 | > 100 | > 100 | > 100 | > 100 | 9.6
24 | CC(=O)N=C1N(/C=C2\C(=O)Oc3ccccc3C2=O)C(=O)/C(=C/c2ccc(Cl)cc2Cl)N1C | > 100 | > 100 | > 100 | > 100 | > 100 | > 100 |  | 94.2 | > 100 | > 100 | > 100 | > 100 | > 100 | > 100 |  | > 100 | > 100 | 5.03
25 | Cc1ccc2nc(-c3ccc(N4C(=O)C(Cl)C4c4ccc(Cl)cc4)cc3)sc2c1 (stereo not given) | > 100 |  | 35.3 | 36.8 |  | 60.2 | > 100 | 57.9 | 19.9 | 50.7 | 8.38 | 53.7 | 28 | 47.7 | 38.1 | 36.7 | 57 | 66.8
26 | CC1(C)C2CC(=O)C1(C)C(OCc1ccccc1)C2 (stereo not given) | > 100 | > 100 | > 100 | > 100 | 46.6 | 77.6 | > 100 | 81.1 | > 100 | > 100 |  | > 100 | > 100 | > 100 | > 100 | 92.8 | 71.3 | 77
27 | COc1ccc(N2C(=O)C3c4[nH]c5ccc(F)cc5c4C4CCC(c5ccccc5)CC4C3C2=O)cc1 (stereo not given) | > 100 | 56.2 |  | 35.2 |  | 14.2 | 27.9 | 36.1 | 63 | 74.1 | 32.6 | 44.5 | 49.5 | 97 | 70.1 | 16.5 | 45.1 | 31.8
